Experimental data taken from publication PMC4563558, “Discovery of a series of novel phenylpiperazine derivatives as EGFR TK inhibitors” (Scientific Reports, 2015).

How the values were obtained:
[1] = target: T1, VEGFR2 (Homo sapiens, UniProt P35968); experiment: Kinase selectivity assay (kit), VEGFR2; type: biochemical; conditions: read-out: Inhibition of VEGFR2 IC50
T1 construct: purchased Bio-Swamp
Method: (§1) To validate whether the above anti-proliferative effect was produced by interaction of EGFR protein and the synthesized compounds, the synthesized compounds were evaluated for their abilities to inhibit the activity of four protein kinases relevant to cancer: EGFR, VEGFR2, bFGF, PDGFR. […] Additionally, the activity data inferred that the IC50 values of these compounds shared a similar tendency with their relevant IC50 values of anti-proliferative assay. […] Therefore, we could conclude that the synthesized inhibitors can inhibit the function of EGFR and the anti-proliferative effect was produced partly by interaction of EGFR protein and the compounds.
(§2) The EGFR, VEGFR2, bFGF and PDGFR Kinase Assay Kit were purchased from Bio-Swamp. The experiments were performed according to the manufacturer’s instructions.

[2] = tested on: Lung cells; experiment: MTT assay, human normal lung cell line; type: cell-based; conditions: read-out: IC50 ± SD, Lung cells
Method: (§3) To test the antiproliferative activities of the synthesized compounds (see supplementary Scheme S1 and S2), the target compounds were evaluated in vitro antiproliferation assays against three human cancer cell lines (MCF-7, HeLa and A549) and one human normal lung cell line.
(§4) The in vitro anticancer activities of the prepared compounds against MCF-7, HeLa and A549 cell lines were evaluated as described in the literature[23] with some modifications. Target tumor cells were grown to log phase in DMEM medium supplemented with 10% fetal bovine serum. After reaching a dilution of 1 × 10^5 cells mL^−1 with the medium, 100 μL of the obtained cell suspension was added to each well of 96-well culture plates. Subsequently, incubation was performed at 37 °C in 5% CO2 atmosphere for 48 h before the cytotoxicity assessment. Tested samples at preset concentrations were added to 6 wells with Erlotinib being employed as a positive reference. After 72 h exposure period, 25 μL of PBS containing 2.5 mg mL^−1 of MTT was added to each well. After 4 h, the medium was replaced by 150 μL DMSO to dissolve the purple formazan crystals produced. The absorbance at 570 nm of each well was measured with an ELISA plate reader. The data represented the mean of three independent experiments in triplicate and were expressed as means ± SD. The IC50 value was defined as the concentration at which 50% of the cells could survive.

[3] = target: PDGFR; experiment: Kinase selectivity assay (kit), PDGFR; type: biochemical; conditions: read-out: Inhibition of PDGFR IC50
Method: as §1, §2

[4] = tested on: HeLa; experiment: MTT antiproliferation assay, HeLa; type: cell-based; conditions: Homo sapiens, 72 h exposure, read-out: IC50 ± SD, HeLa
Method: as §3, §4

[5] = tested on: MCF-7; experiment: MTT antiproliferation assay, MCF-7; type: cell-based; conditions: Homo sapiens, MCF7, 72 h exposure, read-out: IC50 ± SD, MCF-7
Method: as §3, §4

[6] = Acute oral toxicity, bodyweights; type: in vivo; conditions: mice; for Bodyweights 0 day ± SD: day 0; for Bodyweights 7 days ± SD: day 7
Method: Before the acute toxicity experiment, mice were stopped being served food but water was kept for 3 h. The test substances were dissolved in maize germ oil[24]. The preliminary experiment was performed as follows: Four dose levels, 100, 500, 2000, and 5000 mg/kg body weight and three mice for each level were used. We observed the death and evident toxicity in 7 days to determine the general concentration range. Then the administration doses were graded with geometric progression for ease of the calculation of LD50. Mice were randomly divided into groups (10 mice/group). […] The control groups received maize germ oil only. After the administration, food was withheld for 2 h.

[7] = tested on: Erythrocytes; experiment: Hemolysis test; type: cell-based; conditions: human erythrocytes, 3 h incubation
Method: Hemolytic activity was assayed using fresh capillary human blood. Erythrocytes were collected by centrifuging the blood three times in chilled phosphate buffered saline (PBS at 4 °C) at 1000 × g for 10 min. The final pellet was resuspended in PBS to give a 2% w/v solution. Using a microtitre plate, 100 μL of the erythrocyte solution was added to dextran, PLL, stearyl-PLL or stearyl-PLL+LDL (1–1000/μg/mL) in a volume of […]. Samples were then incubated for 3 h and the microtitre plate was centrifuged then at 1000 × g for 10 min and the supernatants (100 μL) transferred into a new microtitre plate. Hemoglobin release was determined spectrophotometrically using a microtitre plate reader (absorbance at 550 nm). Results were expressed as the amount of released hemoglobin induced by the compounds as a percentage of the total. Hemolysis test was tested according to the guide of biological evaluation of medical device (SFDA, China).

[8] = target: T2, EGFR (Homo sapiens, UniProt P00533); experiment: Kinase selectivity assay (kit), EGFR; type: biochemical; conditions: read-out: Inhibition of EGFR IC50
T2 construct: purchased Bio-Swamp
Method: as §2

[9] = in vitro; type: cell-based; conditions: mouse
Method: The cytotoxic activity in vitro was measured against mouse fibroblast NIH-3T3 cells using the MTT assay. Cells were cultured in a 96-well plate at a density of 5 × 10^5 cells and different concentrations of compounds were respectively added to each well. The incubation was permitted at 37 °C, 5% CO2 atmosphere for 24 h before the cytotoxicity assessments. 20 μL MTT reagent (4 mg/mL) was added per well 4 h before the end of the incubation. Four hours later, the plate was centrifuged at 1200 rcf for 5 min and the supernatants were removed, each well was added with 200 μL DMSO. The absorbance was measured at a wavelength of 490 nm (OD 490 nm) on an ELISA microplate reader. Three replicate wells were used for each concentration and each assay was measured three times, after which the average of IC50 was calculated.

[10] = tested on: A549; experiment: MTT antiproliferation assay, A549; type: cell-based; conditions: Homo sapiens, 72 h exposure, read-out: IC50 ± SD, A549
Method: as §3, §4

[11] = target: bFGF; experiment: Kinase selectivity assay (kit), bFGF; type: biochemical; conditions: read-out: Inhibition of bFGF IC50
Method: as §1, §2

[12] = tested on: MCF-7, HeLa and A549 cell lines; experiment: Anticancer activities discussed in text (cell line not specified); type: cell-based, human; conditions: comparison within series and with positive control
Method: According to the data presented in Table 1, it could be concluded that the activity of the tested compounds may be correlated to the variation and modifications of structure.
as §4

[13] = tested on: A549 cells; experiment: Tumor volume in nude mice inoculated with A549 cells; type: in vivo; conditions: 20 mg/kg/2 days, day 14
Method: To further evaluate the antitumor effect of compound 3p in vivo, we performed an animal study. Mice were inoculated subcutaneously with A549 cells (5.0 × 10^6) on their shoulders. […]. […] […].
Male BALB/c nude mice, 35–40 days old and weighing 18–22 g, were supplied by Shanghai Laboratory Animal Limited Company. The mice were raised in air-conditioned rooms under controlled lighting (12 h lighting/day) and were fed with standard laboratory food and water ad libitum. Before injection into the mice, the lung cancer cells (A549) were harvested by trypsinization and washed three times with cold serum-free medium and then injected in a total volume of 0.1 mL using a 1-mL latex-free syringe (BD) within 30 min of harvest. Mice were inoculated subcutaneously with A549 cells (5.0 × 10^6) on their shoulders. When the tumor had increased to 100 mm^3 , the mice were equally randomized into 4 groups (with 6 mice/group): saline tumor control group; compound 3p 20 mg/kg/2 days group; compound 3p 40 mg/kg/2 days group; […]. The control group received 0.9% normal saline. Tumor size was measured once every 2 days in two per-pendicular dimensions with Vernier calipers and converted to tumor volume (TV) using the formula: (ab^2)/2, where a and b refer to the longer and shorter dimensions, respectively. The body weight of the animals was measured twice a week at the same time as the tumor dimension measurement and the mortality was monitored daily. After the treatments, all mice were killed and weighed simultaneously, and then tumor was segregated and weighed.

T1 sequence (P35968 20-1356, species assumed): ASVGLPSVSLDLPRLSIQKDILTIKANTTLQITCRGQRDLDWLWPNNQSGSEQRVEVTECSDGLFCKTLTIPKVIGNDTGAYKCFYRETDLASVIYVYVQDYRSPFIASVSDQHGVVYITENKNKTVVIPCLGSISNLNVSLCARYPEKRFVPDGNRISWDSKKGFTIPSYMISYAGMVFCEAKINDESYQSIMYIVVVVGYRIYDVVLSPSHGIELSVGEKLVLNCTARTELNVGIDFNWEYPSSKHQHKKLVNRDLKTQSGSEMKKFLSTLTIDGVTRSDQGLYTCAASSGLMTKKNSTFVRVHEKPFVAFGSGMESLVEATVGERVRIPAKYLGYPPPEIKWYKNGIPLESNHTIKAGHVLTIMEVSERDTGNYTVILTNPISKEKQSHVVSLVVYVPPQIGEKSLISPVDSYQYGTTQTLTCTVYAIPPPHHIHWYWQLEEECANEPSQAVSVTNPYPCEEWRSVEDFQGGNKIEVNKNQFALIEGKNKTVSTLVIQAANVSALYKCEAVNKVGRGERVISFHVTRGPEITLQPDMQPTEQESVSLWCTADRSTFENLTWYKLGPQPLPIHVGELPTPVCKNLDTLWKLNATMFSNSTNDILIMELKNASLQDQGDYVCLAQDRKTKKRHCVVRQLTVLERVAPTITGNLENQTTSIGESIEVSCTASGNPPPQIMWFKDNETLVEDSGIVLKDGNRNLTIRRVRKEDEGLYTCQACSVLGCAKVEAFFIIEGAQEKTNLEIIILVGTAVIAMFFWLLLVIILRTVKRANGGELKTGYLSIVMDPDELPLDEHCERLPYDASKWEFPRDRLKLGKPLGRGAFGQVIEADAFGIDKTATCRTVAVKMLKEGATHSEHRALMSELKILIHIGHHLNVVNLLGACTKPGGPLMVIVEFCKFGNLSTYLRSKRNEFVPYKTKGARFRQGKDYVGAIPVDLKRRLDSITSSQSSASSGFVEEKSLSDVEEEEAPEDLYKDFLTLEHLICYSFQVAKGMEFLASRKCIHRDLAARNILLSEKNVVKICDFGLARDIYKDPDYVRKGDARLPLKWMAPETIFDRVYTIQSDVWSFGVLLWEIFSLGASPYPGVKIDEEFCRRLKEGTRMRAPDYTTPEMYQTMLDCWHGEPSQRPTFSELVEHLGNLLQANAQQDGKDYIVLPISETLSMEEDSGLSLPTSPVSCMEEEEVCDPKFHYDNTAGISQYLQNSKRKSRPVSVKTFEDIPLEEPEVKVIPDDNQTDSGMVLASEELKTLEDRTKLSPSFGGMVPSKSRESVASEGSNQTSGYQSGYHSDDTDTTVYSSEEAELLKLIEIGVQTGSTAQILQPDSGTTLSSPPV
T2 sequence (P00533 25-1210): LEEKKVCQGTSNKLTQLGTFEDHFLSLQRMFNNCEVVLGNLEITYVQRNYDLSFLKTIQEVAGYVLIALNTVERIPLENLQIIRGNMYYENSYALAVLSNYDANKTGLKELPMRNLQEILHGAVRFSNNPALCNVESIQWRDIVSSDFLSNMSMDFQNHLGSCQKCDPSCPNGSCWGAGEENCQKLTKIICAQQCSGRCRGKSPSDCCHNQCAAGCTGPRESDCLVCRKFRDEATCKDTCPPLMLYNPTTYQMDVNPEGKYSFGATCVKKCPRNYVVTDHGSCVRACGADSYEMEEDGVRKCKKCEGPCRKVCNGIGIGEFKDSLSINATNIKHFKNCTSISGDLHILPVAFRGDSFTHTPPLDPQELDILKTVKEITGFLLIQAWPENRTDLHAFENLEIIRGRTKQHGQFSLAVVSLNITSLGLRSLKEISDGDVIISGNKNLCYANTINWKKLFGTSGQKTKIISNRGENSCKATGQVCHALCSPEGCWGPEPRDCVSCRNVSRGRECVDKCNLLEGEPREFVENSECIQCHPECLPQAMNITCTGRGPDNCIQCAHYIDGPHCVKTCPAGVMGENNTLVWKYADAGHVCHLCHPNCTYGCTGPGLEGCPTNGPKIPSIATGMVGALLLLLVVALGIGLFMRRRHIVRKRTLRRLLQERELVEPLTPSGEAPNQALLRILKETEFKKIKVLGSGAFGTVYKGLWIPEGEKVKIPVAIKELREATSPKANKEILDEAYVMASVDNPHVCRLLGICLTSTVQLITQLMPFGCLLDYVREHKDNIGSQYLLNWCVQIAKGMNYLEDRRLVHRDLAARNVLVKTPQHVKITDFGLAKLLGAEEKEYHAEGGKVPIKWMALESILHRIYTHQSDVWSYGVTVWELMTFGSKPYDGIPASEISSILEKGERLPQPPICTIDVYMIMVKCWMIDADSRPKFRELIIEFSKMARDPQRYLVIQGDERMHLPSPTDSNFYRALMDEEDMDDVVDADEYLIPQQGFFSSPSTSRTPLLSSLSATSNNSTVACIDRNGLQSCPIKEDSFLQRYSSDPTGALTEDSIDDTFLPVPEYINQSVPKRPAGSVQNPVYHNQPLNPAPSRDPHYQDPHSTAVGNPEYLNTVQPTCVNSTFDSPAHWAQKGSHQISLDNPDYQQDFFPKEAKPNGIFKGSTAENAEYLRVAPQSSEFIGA

SMILES | IC50 [1] [µM] | IC50 [2] [µM] | IC50 [3] [µM] | IC50 [4] [µM] | IC50 [5] [µM] | Bodyweights 0 day ± SD [6] [g] | Bodyweights 7 days ± SD [6] [g] | Hemolysis LC30 (lytic concentration 30%) [7] [µg/mL] | IC50 [8] [µM] | IC50 at 24 h [9] [µM] | IC50 [10] [µM] | IC50 [11] [µM] | Anticancer / antitumor activity (in words) [12] | Reduction of the growth of tumors [13] [%]
COc1cc(OC)nc(NC(=O)CN2CCN(c3cccc(C(F)(F)F)c3)CC2)n1 [3r, N-(4,6-Dimethoxypyrimidin-2-yl)-2-(4-(3-(trifluoromethyl)phenyl)piperazin-1-yl)acetamide] | 6.95 ± 0.68 | 150 ± 3.03 | 3.87 ± 0.92 | 4.02 ± 0.01 | 4.97 ± 0.01 | 21.00 ± 1.01 | 25.07 ± 1.21 | >10000 | 1.96 ± 0.006 | 185 ± 2.16 | 0.33 ± 0.07 | 33.9 ± 3.59 |  | 
COc1cc(OC)nc(NC(=O)CN2CCN(c3ccccn3)CC2)n1 [3m, N-(4,6-Dimethoxypyrimidin-2-yl)-2-(4-(pyridin-2-yl)piperazin-1-yl)acetamide] | 7.23 ± 0.78 | 165.8 ± 0.59 | 50 ± 4.76 | 5.11 ± 0.006 | 2.87 ± 0.004 | 22.43 ± 1.02 | 22.09 ± 1.02 | >10000 | 2.55 ± 0.67 | 182 ± 3.22 | 1.55 ± 0.004 | 3.8 ± 0.036 |  | 
COc1cc(OC)nc(NC(=O)CN2CCN(c3ccc([N+](=O)[O-])cc3)CC2)n1 [3f, N-(4,6-Dimethoxypyrimidin-2-yl)-2-(4-(4-nitrophenyl)piperazin-1-yl)acetamide] | 7.67 ± 0.07 | 202 ± 4.05 | 24.5 ± 2.56 | 4.99 ± 0.07 | 2.09 ± 0.01 | 20.57 ± 1.43 | 27.25 ± 1.50 | >10000 | 2.12 ± 0.08 | 155 ± 3.05 | 0.08 ± 0.003 | 21.5 ± 0.69 |  | 
COc1ccc(N2CCN(CC(=O)Nc3nc(OC)cc(OC)n3)CC2)cc1 [3i, N-(4,6-Dimethoxypyrimidin-2-yl)-2-(4-(4-methoxyphenyl)piperazin-1-yl)acetamide] | 3.99 ± 0.08 | 197.5 ± 1.74 | 31.8 ± 3.12 | 0.9 ± 0.07 | 2.98 ± 0.09 | 21.33 ± 0.67 | 25.83 ± 1.30 | >10000 | 0.91 ± 0.006 | 198.5 ± 1.13 | 2.22 ± 0.05 | 22.35 ± 0.1 | better anticancer activities compared to the positive control | 
N.N.[Cl][Pt][Cl] [DDCP, reference compound] |  |  |  |  |  |  |  | >10000 |  |  |  |  |  | 
COc1cc(OC)nc(NC(=O)CN2CCN(c3ccccc3OC)CC2)n1 [3e, N-(4,6-Dimethoxypyrimidin-2-yl)-2-(4-(2-methoxyphenyl)piperazin-1-yl)acetamide] | 5.33 ± 0.05 | 189.3 ± 1.78 | 10 ± 1.17 | 1.55 ± 0.006 | 2.57 ± 0.02 | 21.11 ± 1.34 | 25.34 ± 1.15 | >10000 | 1.01 ± 0.004 | 173 ± 5.31 | 1.97 ± 0.001 | 11.5 ± 0.89 | better anticancer activities compared to the positive control | 
COc1cc(OC)nc(NC(=O)CN2CCN(c3ccccc3F)CC2)n1 [3c, N-(4,6-Dimethoxypyrimidin-2-yl)-2-(4-(2-fluorophenyl)piperazin-1-yl)acetamide] | 8.94 ± 0.73 | 178 ± 2.02 | 33.8 ± 1.94 | 2.69 ± 0.1 | 4.13 ± 0.01 | 21.09 ± 1.16 | 26.09 ± 0.93 | >10000 | 1.35 ± 0.006 | 230 ± 3.15 | 0.55 ± 0.02 | 25.4 ± 2.34 |  | 
COc1cc(OC)nc(NC(=O)CN2CCN(c3ccccc3)CC2)n1 [3d, N-(4,6-Dimethoxypyrimidin-2-yl)-2-(4-phenylpiperazin-1-yl)acetamide] | 10.1 ± 1.08 | 136 ± 3.15 | 8.5 ± 0.09 | 10.2 ± 0.28 | 9.87 ± 1 | 21.18 ± 2.15 | 25.57 ± 1.56 | >10000 | 5.11 ± 0.03 | 150 ± 2.56 | 2.17 ± 0.02 | 18.5 ± 2.11 | worst anticancer activity | 
C#Cc1cccc(Nc2ncnc3cc(OCCOC)c(OCCOC)cc23)c1 [Erlotinib, reference compound] |  | 195.2 ± 1.27 |  | 0.11 ± 0.01 | 0.15 ± 0.03 |  |  |  |  |  | 0.1 ± 0.0004 |  |  | 49.09
